Experimental data published in patent US12391721B2, “Crystal forms of beta-nicotinamide mononucleotide” (Metro International Biotech, LLC, priority 2015, dated 2025).

Tests used:
Assay type in all cases: physicochemical
[1] = Three month stability and forced degradation study: visual observations of stored solids
Protocol: (§1) […] The samples were prepared in duplicate with an offset of 2 weeks. Each replicate was stored in a different container.
(§2) Replicate 1 was charged in an open HPLC vial that was placed in a sealed scintillation vial containing a saturated solution of the relevant inorganic salt (Table 2). These samples were analysed by HPLC, 1H NMR, XRPD and Polarized Light Microscopy (PLM) at 4, 8, and 12 week time points.
(§3) Replicate 2 was stored in sealed box with a recipient containing a saturated solution of the relevant inorganic salt (Table 2). These samples were analysed by HPLC at 2, 6, 10 and 12 week time points. Samples at 25° C./0% RH were stored in a sealed box containing a desiccant agent (P2O5).

[2] = Three month stability and forced degradation study: HPLC purity of stored solids; details: for Known Impurity* (%) (nicotinamide, RRT = 1.73 min) / Purity (%): HPLC
Protocol: Purity analysis was performed on an Agilent HP1100 series system equipped with a diode array detector and using ChemStation software vB.04.03 using the method detailed below in Table 1.
as §1, §2, §3

[3] = Three month stability and forced degradation study: solid form by XRPD after storage; details: for XRPD: Replicate 1
Protocol: X-Ray Powder Diffraction patterns were collected on a Bruker D8 diffractometer using Cu Kα radiation (40 kV, 40 mA), θ-2θ goniometer, and divergence of V4 and receiving slits, a Ge monochromator and a Lynxeye detector. The instrument is performance checked using a certified Corundum standard (NIST 1976). The software used for data collection was Diffrac Plus XRD Commander v2.6.1 and the data were analysed and presented using Diffrac Plus EVA v15.0.0.0.
Samples were run under ambient conditions as flat plate specimens using powder as received. The sample was gently packed into a cavity cut into polished, zero-background (510) silicon wafer. The sample was rotated in its own plane during analysis. The details of the data collection are: • Angular range: 2 to 42° 2θ • Step size: 0.05° 2θ • Collection time: 0.5 s/step HPLC
as §1, §2

[4] = Three month stability and forced degradation study: particle morphology by polarised light microscopy (PLM); details: Replicate 1
Protocol: Samples were studied on a Leica LM/DM polarised light microscope with a digital video camera for image capture. A small amount of each sample was placed on a glass slide, 15 mounted in immersion oil and covered with a glass slip, the individual particles being separated as well as possible. The sample was viewed with appropriate magnification and partially polarised light, coupled to a λ false-color filter.
as §1, §2

[5] = solid stored 25° C., 0% RH, 4 weeks, Replicate 1
[6] = solid stored 25° C., 0% RH, 8 weeks, Replicate 1
[7] = solid stored 25° C., 0% RH, 12 weeks, Replicate 1
[8] = solid stored 25° C., 60% RH, 2 weeks, Replicate 2
[9] = solid stored 25° C., 60% RH, 4 weeks, Replicate 1
[10] = solid stored 25° C., 60% RH, 6 weeks, Replicate 2
[11] = solid stored 25° C., 60% RH, 8 weeks, Replicate 1
[12] = solid stored 25° C., 60% RH, 10 weeks, Replicate 2
[13] = solid stored 25° C., 60% RH, 12 weeks, Replicate 1
[14] = solid stored 25° C., 60% RH, 12 weeks, Replicate 2
[15] = solid stored 25° C., 97% RH, 2 weeks, Replicate 2
[16] = solid stored 25° C., 97% RH, 4 weeks, Replicate 1
[17] = solid stored 25° C., 97% RH, 6 weeks, Replicate 2
[18] = solid stored 25° C., 97% RH, 8 weeks, Replicate 1
[19] = solid stored 25° C., 97% RH, 10 weeks, Replicate 2
[20] = solid stored 25° C., 97% RH, 12 weeks, Replicate 1
[21] = solid stored 25° C., 97% RH, 12 weeks, Replicate 2
[22] = solid stored 40° C., 75% RH, 2 weeks, Replicate 2
[23] = solid stored 40° C., 75% RH, 4 weeks, Replicate 1
[24] = solid stored 40° C., 75% RH, 6 weeks, Replicate 2
[25] = solid stored 40° C., 75% RH, 8 weeks, Replicate 1
[26] = solid stored 40° C., 75% RH, 10 weeks, Replicate 2
[27] = solid stored 40° C., 75% RH, 12 weeks, Replicate 1
[28] = solid stored 40° C., 75% RH, 12 weeks, Replicate 2
[29] = solid stored 25° C., 0% RH, 12 weeks, Replicate 1, listed as Crystalline Form 1
[30] = t = 0, baseline of the stability study, listed as RME-1304-063-01
[31] = solid stored 25° C., 0% RH, 4 weeks
[32] = solid stored 25° C., 0% RH, 8 weeks
[33] = solid stored 25° C., 0% RH, 12 weeks
[34] = solid stored 25° C., 60% RH, 4 weeks
[35] = solid stored 25° C., 60% RH, 8 weeks
[36] = solid stored 25° C., 60% RH, 12 weeks
[37] = solid stored 25° C., 97% RH, 4 weeks
[38] = solid stored 25° C., 97% RH, 8 weeks
[39] = solid stored 25° C., 97% RH, 12 weeks
[40] = solid stored 40° C., 75% RH, 4 weeks
[41] = solid stored 40° C., 75% RH, 8 weeks
[42] = solid stored 40° C., 75% RH, 12 weeks

Compound: NC(=O)c1ccc[n+]([C@@H]2O[C@H](COP(=O)([O-])O)[C@@H](O)[C@H]2O)c1 [RME-1304-63-01, β-nicotinamide mononucleotide]
- Observations [1, 5]: white solid
- Observations [1, 6]: white solid
- Observations [1, 7]: white solid
- Observations [1, 8]: white solid
- Observations [1, 9]: light brown
- Observations [1, 10]: light brown
- Observations [1, 11]: light brown
- Observations [1, 12]: light brown
- Observations [1, 13]: light brown
- Observations [1, 14]: light brown
- Observations [1, 15]: white solid
- Observations [1, 16]: white solid
- Observations [1, 17]: white solid,
- Observations [1, 18]: white solid
- Observations [1, 19]: white solid, wet
- Observations [1, 20]: white solid,
- Observations [1, 21]: white solid, wet
- Observations [1, 22]: white solid
- Observations [1, 23]: white solid
- Observations [1, 24]: white solid
- Observations [1, 25]: white solid
- Observations [1, 26]: light brown
- Observations [1, 27]: brown solid,
- Observations [1, 28]: light brown
- chemical purity after storage ([2]; 4 weeks of storage at all the tested conditions): ~99.3%
- Known Impurity* (%) (nicotinamide, RRT = 1.73 min) [2, 5]: 0.25%
- Purity (%) [2, 5]: 99.4%
- Known Impurity* (%) (nicotinamide, RRT = 1.73 min) [2, 6]: 0.33%
- Purity (%) [2, 6]: 99.2%
- Known Impurity* (%) (nicotinamide, RRT = 1.73 min) [2, 7]: 0.38%
- Purity (%) [2, 7]: 98.9%
- Known Impurity* (%) (nicotinamide, RRT = 1.73 min) [2, 29]: 0.38%
- Purity (%) [2, 29]: 98.9%
- Known Impurity* (%) (nicotinamide, RRT = 1.73 min) [2, 8]: 0.19%
- Purity (%) [2, 8]: 99.6%
- Known Impurity* (%) (nicotinamide, RRT = 1.73 min) [2, 9]: 0.34%
- Purity (%) [2, 9]: 99.3%
- Known Impurity* (%) (nicotinamide, RRT = 1.73 min) [2, 10]: 0.21%
- Purity (%) [2, 10]: 99.5%
- Known Impurity* (%) (nicotinamide, RRT = 1.73 min) [2, 11]: 0.63%
- Purity (%) [2, 11]: 98.9%
- Known Impurity* (%) (nicotinamide, RRT = 1.73 min) [2, 12]: 0.35%
- Purity (%) [2, 12]: 99.1%
- Known Impurity* (%) (nicotinamide, RRT = 1.73 min) [2, 13]: 0.98%
- Purity (%) [2, 13]: 98.2%
- Known Impurity* (%) (nicotinamide, RRT = 1.73 min) [2, 14]: 0.23%
- Purity (%) [2, 14]: 98.8%
- Known Impurity* (%) (nicotinamide, RRT = 1.73 min) [2, 15]: 0.22%
- Purity (%) [2, 15]: 99.5%
- Known Impurity* (%) (nicotinamide, RRT = 1.73 min) [2, 16]: 0.49%
- Purity (%) [2, 16]: 99.3%
- Known Impurity* (%) (nicotinamide, RRT = 1.73 min) [2, 17]: 0.38%
- Purity (%) [2, 17]: 99.4%
- Known Impurity* (%) (nicotinamide, RRT = 1.73 min) [2, 18]: 1.38%
- Purity (%) [2, 18]: 98.3%
- Known Impurity* (%) (nicotinamide, RRT = 1.73 min) [2, 19]: 0.77%
- Purity (%) [2, 19]: 98.6%
- Known Impurity* (%) (nicotinamide, RRT = 1.73 min) [2, 20]: 3.46%
- Purity (%) [2, 20]: ~95.8^$ %
- Purity (%) ([2]; solid stored 25° C., 97% RH, 12 weeks, Replicate 1, listed as Crystalline Form 1): 95.8%
- Known Impurity* (%) (nicotinamide, RRT = 1.73 min) [2, 21]: 0.55%
- Purity (%) [2, 21]: 98.4%
- Known Impurity* (%) (nicotinamide, RRT = 1.73 min) [2, 22]: 0.22%
- Purity (%) [2, 22]: 99.5%
- Known Impurity* (%) (nicotinamide, RRT = 1.73 min) [2, 23]: 0.46%
- Purity (%) [2, 23]: 99.2%
- Known Impurity* (%) (nicotinamide, RRT = 1.73 min) [2, 24]: 0.27%
- Purity (%) [2, 24]: 99.4%
- Known Impurity* (%) (nicotinamide, RRT = 1.73 min) [2, 25]: 1.38%
- Purity (%) [2, 25]: 97.7%
- Known Impurity* (%) (nicotinamide, RRT = 1.73 min) [2, 26]: 0.49%
- Purity (%) [2, 26]: 98.8%
- Known Impurity* (%) (nicotinamide, RRT = 1.73 min) [2, 27]: 3.46%
- Purity (%) [2, 27]: 90.7%
- Known Impurity* (%) (nicotinamide, RRT = 1.73 min) [2, 28]: 0.77%
- Purity (%) [2, 28]: 97.4%
- HPLC purity profile, Area % of main peak (RRT 1.00) [2, 30]: 99.52 Area %
- HPLC purity profile, Area % of peak at RRT 1.76 / 1.74 (nicotinamide) [2, 30]: 0.12 Area %
- nicotinamide impurity ([2]; time 0): 0.12%
- Purity ([2]; time 0, listed as Crystalline Form 1): 99.5%
- solid form and particle morphology after storage ([3]; all conditions tested): remained unchanged
- XRPD [3, 31]: Unchanged
- XRPD [3, 32]: Unchanged
- XRPD [3, 33]: Unchanged
- XRPD [3, 34]: Unchanged
- XRPD [3, 35]: Unchanged
- XRPD [3, 36]: Unchanged
- XRPD [3, 37]: Unchanged
- XRPD [3, 38]: Unchanged
- XRPD [3, 39]: Unchanged
- XRPD [3, 40]: Unchanged
- XRPD [3, 41]: Unchanged
- XRPD [3, 42]: Unchanged
- PLM [4, 31]: acicular
- PLM [4, 32]: acicular
- PLM [4, 33]: acicular
- PLM [4, 34]: acicular
- PLM [4, 35]: acicular
- PLM [4, 36]: acicular
- PLM [4, 37]: acicular
- PLM [4, 38]: acicular
- PLM [4, 39]: acicular
- PLM [4, 40]: acicular
- PLM [4, 41]: acicular
- PLM [4, 42]: acicular
